Article PMC10149367, “The ferroptosis inducing compounds RSL3 and ML162 are not direct inhibitors of GPX4 but of TXNRD1” (Redox Biology, 2023)

Columns and labels:
TXNRD1 [1] = molecular target: T1, TXNRD1 (Homo sapiens, UniProt Q16881); experiment: TXNRD1 activity assay, pure enzyme (Fig. 1A); type: biochemical
T1 construct: made in house
T1 sequence (Q16881 1-499 isoform Q16881-5): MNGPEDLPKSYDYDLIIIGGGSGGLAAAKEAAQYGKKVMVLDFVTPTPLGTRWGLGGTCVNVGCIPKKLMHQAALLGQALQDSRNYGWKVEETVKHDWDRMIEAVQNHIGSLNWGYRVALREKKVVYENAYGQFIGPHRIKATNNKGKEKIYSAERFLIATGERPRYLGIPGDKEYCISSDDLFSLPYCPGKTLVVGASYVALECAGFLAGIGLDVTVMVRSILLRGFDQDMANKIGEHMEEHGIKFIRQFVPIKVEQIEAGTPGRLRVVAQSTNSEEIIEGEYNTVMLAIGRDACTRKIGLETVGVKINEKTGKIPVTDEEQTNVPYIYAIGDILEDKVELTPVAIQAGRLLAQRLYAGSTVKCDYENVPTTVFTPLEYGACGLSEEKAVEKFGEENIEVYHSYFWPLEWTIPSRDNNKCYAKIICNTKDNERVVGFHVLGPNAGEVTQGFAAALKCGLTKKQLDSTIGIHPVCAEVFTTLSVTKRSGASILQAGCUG
Description: Recombinant human proteins—Recombinant human selenoprotein GPX and TXNRD isoenzymes as well as recombinant human GR were cloned, expressed, and purified as described previously [[26], [27], [28]].
TXNRD1 selenite and DTNB assays were run as previously described [[26], [27], [28]]. Dose-response curves and IC50s were generated using Excel and GraphPad Prism. Briefly, initial slopes of NADPH consumption were normalized to DMSO controls and IC50s were calculated using log(inhibitor) vs. response—Variable slope (four parameters).

TXNRD1 [2] = molecular target: T1, TXNRD1; experiment: nano differential scanning fluorimetry, TXNRD1; type: binding; details: 100 μM compound
Description: Nano differential scanning fluorimetry—Real-time monitoring of fluorescence emission at 330 nm and 350 nm (excitation wavelength: 280 nm) and backscattering absorbance of GPX4 and TXNRD1 samples in the presence of compound was performed using a NanoTemper Prometheus NT.48 instrument. […] Standard capillaries were used, and temperature was increased from 25 to 95 °C with a ramp rate of 4.0 °C/min. Three biological replicates were carried out for each condition, and their means and standard deviations are depicted.

TXNRD1 [3] = molecular target: T2, TXNRD1 (Homo sapiens, UniProt Q16881); experiment: Cellular TXNRD1 assay with RX1 probe in A549 cells; type: cell-based; details: A549, 4 h incubation; RSL3 and ML162 at 1 μM or higher
T2 construct: RX1 probe that specifically reports upon TXNRD1 enzymatic activity in live cells; endogenous in cells; host or cells: A549
T2 sequence (Q16881 151-649 limits assumed): T1 sequence (Q16881 1-499 isoform Q16881-5)
Description: Cellular TXNRD1 assay—20,000 or 10,000 A549 cells (for 4 h or 12 h and 24 h compound incubation respectively) were seeded in 96-well plates (microplates, 96 well, F-bottom, black, clear bottom, ViewPlateTM-96 F TC, PerkinElmer), in a total volume of 100 μL full DMEM (supplemented with 10% FBS and 100 nM Na2SeO3). […] The cells were subsequently incubated for the respective mentioned time, washed once with full DMEM and fresh, full DMEM, containing 75 μM RX1 and 0.75% DMSO, was added and the first fluorescent measurement was conducted immediately (timepoint = 0) using a Tecan Infinite M200 plate reader (ex/em 355/520). To follow the kinetic activation of RX1, a fluorescent measurement was done every hour for 6 h. Between measurements, cells were stored at 37 °C and 5% CO2. As a control, cells treated with compounds, but not with RX1, just the respective DMSO content, were used for background fluorescent. To determine how the cells were viable throughout the RX1 assay, the control cells were used for a viability measurement, using CellTiter-Glo® Luminescent Cell Viability Assay, after the final fluorescent measurement. For final data analysis, raw data was processed using Microsoft Excel and GraphPad Prism. In brief, the slope of the activated RX1 fluorescence increase was in each case calculated and normalized, using the viability measurement of the control cells.

A549 cells [4] = experiment: Cytotoxicity assay, A549 cells; type: cell-based, human
Description: Cell culture—H1975 and A549 cells were cultured in RPMI-1640 medium (HyClone) with Earle's salts supplemented and penicillin/streptomycin (100 μg/ml), while HT1080 cells were cultured in MEM medium for Fig. 2 experiments. For all other cellular experiments, A549 cells were cultured in DMEM 4.5 g/L glucose medium (Gibco), and H1975 cells in RPMI-1640 ATCC Modification (Gibco). Cell cultures were maintained at 37 °C in 5% CO2 in a medium containing 10% fetal bovine serum (FBS) (GE Healthcare, A15-102 for Fig. 2 experiments and Sigma, F7524 for all others). Experiments were performed with or without supplementation with 100 nM sodium selenite as described.
Cytotoxicity assays— Cells were seeded in a 96-well plate at the density of 3 × 10^3 per well and allowed to adhere overnight. After which, cells were treated with various concentrations of compound for the indicated times, whereupon cell viability was determined using Cell Quanti-Blue™ Cell Viability Assay Kits (Nordic Diagnostica, CQBL-10K). Briefly, QUANTI-Blue Reagent (10 μL) was added to each well, incubated at 37 °C in 5% CO2 for 3 h, and then the plates were measured at 540nm/600 nm (Ex/Em) using the Tecan Microplate Reader (Morrisville NC, USA).

GPX4 [5] = molecular target: T3, GPX4 (Homo sapiens, UniProt P36969); experiment: GPX4 immunoblot of treated A549 cells; type: cell-based; details: A549, 3 μM, 24 h
T3 construct: We thus performed immunoblot analyses for GPX4 in A549 cells; endogenous in cells; host or cells: A549
T3 sequence (P36969 1-197): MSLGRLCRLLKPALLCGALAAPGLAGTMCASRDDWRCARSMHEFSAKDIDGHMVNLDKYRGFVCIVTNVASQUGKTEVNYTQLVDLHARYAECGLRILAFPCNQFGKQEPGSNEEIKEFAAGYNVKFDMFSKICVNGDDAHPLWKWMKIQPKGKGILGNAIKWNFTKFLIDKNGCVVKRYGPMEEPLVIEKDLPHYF
Description: Western blots—A549 and H1975 cells cultured for at least 72 h in the presence of 100 nM Na2SeO3 (Sigma) were seeded in 90 mm dishes (VWR) at 1 × 10^6 cells per dish for 18 h prior to main treatments. Four hours after seeding dishes, cells were pretreated with 2 μM Fer-1 for 14 h prior to adding RSL3, when indicated. After 14 h, main treatments with TRi-1, TRi-2, RSL3, ML162, ML210 or 0.03% v/v DMSO in doses indicated in each figure were added for 6 or 24 h. Total DMSO content was 0.05%. Cells were then scraped, washed in PBS, and suspended in 150–200 μL lysis buffer containing 50 mM Tris-HCl (pH 7.5), 2 mM EDTA, 0.15 M NaCl, 1% Triton X-100, and cOmplete protease inhibitor cocktail (Roche). Supernatants were collected after 30 s of sonication, and 30 min centrifugation at 17000×g, and protein concentration was measured using Pierce bicinchoninic acid (BCA) protein assay kit (Thermo Fischer Scientific). […] Chemiluminescent signal was detected using anti-rabbit and anti-mouse HRP-IgG secondary antibodies (Southern Biotech, 4030–05, LOT A2718-MM00 and 1030–05, LOT L3919-XE81B respectively) and ECL detection reagent (Cytiva Amersham). Protein quantification based on band densitometry was performed in Quantity One and Image Lab (BioRad).

[6] = design: method as in PMID 29444979; details: given at high doses to mice; cited from earlier work
[7] = system: malondialdehyde (MDA) and Ptgs2 mRNA levels; design: method as in PMID 32732975; details: C57BL/6 mice; rescued with Fer-1; cited from earlier work
GPX4 [8] = system: GPX4; design: method as in PMID 34788728; details: cited from earlier work
A549 cells [9] = experiment: A549 viability in cellular TXNRD1 (RX1) experiments; details: A549, 4 h, Extended Data Fig. 3A
Description: Cellular TXNRD1 assay—20,000 or 10,000 A549 cells (for 4 h or 12 h and 24 h compound incubation respectively) were seeded in 96-well plates (microplates, 96 well, F-bottom, black, clear bottom, ViewPlateTM-96 F TC, PerkinElmer), in a total volume of 100 μL full DMEM (supplemented with 10% FBS and 100 nM Na2SeO3). The cells were incubated for 16 h at 37 °C and 5% CO2, followed by media change and addition of indicated compounds at respective concentrations (0.1 μM–20 μM), including 0.6% DMSO. The cells were subsequently incubated for the respective mentioned time, washed once with full DMEM and fresh, full DMEM, containing 75 μM RX1 and 0.75% DMSO, was added and the first fluorescent measurement was conducted immediately (timepoint = 0) using a Tecan Infinite M200 plate reader (ex/em 355/520). To follow the kinetic activation of RX1, a fluorescent measurement was done every hour for 6 h. Between measurements, cells were stored at 37 °C and 5% CO2. As a control, cells treated with compounds, but not with RX1, just the respective DMSO content, were used for background fluorescent. To determine how the cells were viable throughout the RX1 assay, the control cells were used for a viability measurement, using CellTiter-Glo® Luminescent Cell Viability Assay, after the final fluorescent measurement. For final data analysis, raw data was processed using Microsoft Excel and GraphPad Prism. In brief, the slope of the activated RX1 fluorescence increase was in each case calculated and normalized, using the viability measurement of the control cells.
Extended Data Figure 3: A549 cytotoxicity in cellular TXNRD1 experiments following final
A) Cell viability following 4-hour incubation with
compounds; B) Viability following 12-hour incubation with compounds; C) Viability
following 24 -hour incubation with compounds. The cell viability in was in each case measured
using the Cell Quanti-BlueTM Cell Viability Assay Kit and the data are presented as mean ±
s.d. of n = 3 biological replicates, each containing n = 3 technical replicates.

In the case of `COc1ccc([N+](=O)[O-])c(S(=O)(=O)c2ccc(Cl)cc2)n1` [TRi-1], the “Specificity among GPX1, GPX4, GR and TXNRD1” value (TXNRD1 [1]; pure enzyme systems, Fig. 1A lower panels) is reported as “specific inhibitors of TXNRD1”, the IC50 (TXNRD1 [1]; recombinant TXNRD1, Fig. 1A assay conditions, read-out: IC50 TXNRD1 inhibition) is reported as roughly 0.5 µM and the “Thermal stabilization of TXNRD1” value (TXNRD1 [2]) is reported as “displaying thermal stabilization of the enzyme”. The “Effect on cellular TXNRD1 activity (RX1) at 4 h” value (TXNRD1 [3]) was “effectively inhibit cellular TXNRD1 activity”, the IC50 (A549 cells [4]; 24 h, media not supplemented with selenium) was roughly 20 µM and the “Effect of ferrostatin-1 or MitoTEMPO co-treatment on cytotoxicity” value (A549 cells [4]; A549, 24 h, no selenium supplementation) was “co-treatment with neither ferrostatin-1 nor MitoTEMPO had any effect”. For the same molecule, the Cell viability (A549 cells [4]; A549, 24 h, under all tested conditions (with/without Se, blockers)) was “about 40%”, the “Difference in response profiles between cell lines” value (A549 cells [4]; A549, H1975 and HT1080, 24 h) was “no stark difference in response profiles” and the “GPX4 expression levels compared to DMSO controls (immunoblot)” value (GPX4 [5]) was “no obvious changes in its expression levels”. For the same molecule, the “Antitumoral effect in mice” value [6] was “antitumoral properties”, the Toxicity to mice [6] was “lack overt toxicity” and the “MDA and Ptgs2 levels” value [7] was “increase MDA and Ptgs2 levels”. The “Effect on GPX4 thermostability” value (GPX4 [8]) was “no major effect” and the “Effect on cell viability at 4 h” value (A549 cells [9]) was “no overt effects on viability”.
